Toxic doses and inconclusive results are not listed. No stated cut-off is given here; in the data, active means T/C of 150% or more; inactive means T/C below 125%.
Tested on: L1210 leukemia ip in BDF1 mice, survival T/C
Assay: NCI In Vivo Anticancer Drug Screen. Data for tumor model L1210 Leukemia (intraperitoneal) in B6D2F1 (BDF1) mice
Conditions: endpoint: mean survival time, higher = longer survival
Procedure, shortened: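 Transplanted-tumor mice were given test agent; controls received vehicle only. Survival readings from the two groups were divided (treated over control).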

[1] = dose: 100.0 mg/kg/injection, schedule: Q01DX009 (ip), vehicle: Klucel (hydroxypropylcellulose) (HPC)
[2] = dose: 100.0 mg/kg/injection, schedule: Q04DX003 (ip), vehicle: Klucel (hydroxypropylcellulose) (HPC)
[3] = dose: 200.0 mg/kg/injection, schedule: Q01DX009 (ip), vehicle: Klucel (hydroxypropylcellulose) (HPC)
[4] = dose: 200.0 mg/kg/injection, schedule: Q04DX003 (ip), vehicle: Klucel (hydroxypropylcellulose) (HPC)
[5] = dose: 400.0 mg/kg/injection, schedule: Q01DX009 (ip), vehicle: Klucel (hydroxypropylcellulose) (HPC)
[6] = dose: 400.0 mg/kg/injection, schedule: Q04DX003 (ip), vehicle: Klucel (hydroxypropylcellulose) (HPC)
[7] = dose: 25.0 mg/kg/injection, schedule: Q01DX009 (ip), vehicle: Klucel (hydroxypropylcellulose) (HPC)
[8] = dose: 50.0 mg/kg/injection, schedule: Q01DX009 (ip), vehicle: Klucel (hydroxypropylcellulose) (HPC)
[9] = dose: 100.0 mg/kg/injection, schedule: Q04DX003 (ip), vehicle: saline with Tween-80
[10] = dose: 200.0 mg/kg/injection, schedule: Q04DX003 (ip), vehicle: saline with Tween-80
[11] = dose: 400.0 mg/kg/injection, schedule: Q04DX003 (ip), vehicle: saline with Tween-80
[12] = dose: 50.0 mg/kg/injection, schedule: Q04DX003 (ip), vehicle: Klucel (hydroxypropylcellulose) (HPC)
[13] = dose: 100.0 mg/kg/injection, schedule: Q04DX003 (ip), vehicle: saline
[14] = dose: 200.0 mg/kg/injection, schedule: Q04DX003 (ip), vehicle: saline
[15] = dose: 400.0 mg/kg/injection, schedule: Q04DX003 (ip), vehicle: saline
[16] = dose: 100.0 mg/kg/injection, schedule: Q01DX001 (ip), vehicle: saline
[17] = dose: 200.0 mg/kg/injection, schedule: Q01DX001 (ip), vehicle: saline
[18] = dose: 400.0 mg/kg/injection, schedule: Q01DX001 (ip), vehicle: saline

Measured: T/C

C/C(=N/NC(N)=S)c1ccncc1
inactive: dose: 2.5 mg/kg/injection, schedule: Q01DX009 (ip), vehicle: Klucel (hydroxypropylcellulose) (HPC) 106 % of control | dose: 5.0 mg/kg/injection, schedule: Q01DX009 (ip), vehicle: Klucel (hydroxypropylcellulose) (HPC) 103 % of control | dose: 10.0 mg/kg/injection, schedule: Q01DX009 (ip), vehicle: Klucel (hydroxypropylcellulose) (HPC) 94 % of control

O=C1OCCN1/N=C/c1ccc([N+](=O)[O-])o1
inactive: [1] 107 % of control | [2] 105 % of control | [3] 110 % of control | [4] 105 % of control | [5] 97 % of control | [6] 106 % of control

CN(C)C=Nc1ccccc1
inactive: [1] 109 % of control | [2] 111 % of control | [3] 101 % of control | [4] 97 % of control | [5] 100 % of control | [6] 93 % of control

S=C1NC(c2ccc(Cl)cc2)N2C(=S)NC(c3ccc(Cl)cc3)N12 (stereo not given)
inactive: dose: 100.0 mg/kg/injection, schedule: Q01DX009 (ip), vehicle: gum acacia 98 % of control | dose: 100.0 mg/kg/injection, schedule: Q04DX003 (ip), vehicle: gum acacia 104 % of control | dose: 200.0 mg/kg/injection, schedule: Q01DX009 (ip), vehicle: gum acacia 93 % of control | dose: 200.0 mg/kg/injection, schedule: Q04DX003 (ip), vehicle: gum acacia 101 % of control | dose: 400.0 mg/kg/injection, schedule: Q04DX003 (ip), vehicle: gum acacia 98 % of control

BrCCOCCBr
inactive: dose: 25.0 mg/kg/injection, schedule: Q01DX009 (ip), vehicle: other 97 % of control | dose: 50.0 mg/kg/injection, schedule: Q01DX009 (ip), vehicle: other 92 % of control | dose: 100.0 mg/kg/injection, schedule: Q01DX009 (ip), vehicle: other 95 % of control

O=[N+]([O-])c1cc(S(=O)(=O)c2ccc(Cl)c([N+](=O)[O-])c2)ccc1Cl
inactive: [7] 92 % of control | [8] 92 % of control | [1] 90 % of control | [3] 92 % of control | [5] 87 % of control

COc1ccc(C2C3CCC(C3)C2C(C)=O)cc1 (stereo not given)
inactive: dose: 100.0 mg/kg/injection, schedule: Q01DX001 (ip), vehicle: saline with Tween-80 101 % of control | dose: 200.0 mg/kg/injection, schedule: Q01DX001 (ip), vehicle: saline with Tween-80 90 % of control | dose: 400.0 mg/kg/injection, schedule: Q01DX001 (ip), vehicle: saline with Tween-80 92 % of control

O=C1c2ccccc2C(=O)N1N1C(=O)c2ccccc2C1=O
inactive: dose: 100.0 mg/kg/injection, schedule: Q01DX009 (ip), vehicle: saline with Tween-80 96 % of control | [9] 97 % of control | dose: 200.0 mg/kg/injection, schedule: Q01DX009 (ip), vehicle: saline with Tween-80 91 % of control | [10] 100 % of control | dose: 400.0 mg/kg/injection, schedule: Q01DX009 (ip), vehicle: saline with Tween-80 96 % of control | [11] 97 % of control

C/C(=N/N=C(/C)c1ccccc1)c1ccccc1
inactive: [12] 110 % of control | [1] 96 % of control | [2] 94 % of control | [3] 100 % of control | [4] 103 % of control | [5] 96 % of control | [6] 97 % of control

COc1cc(NS(C)(=O)=O)ccc1NS(C)(=O)=O
inactive: [1] 112 % of control | [2] 108 % of control | [3] 108 % of control | [4] 94 % of control | [5] 103 % of control | [6] 100 % of control

CCCCCCC(=O)N1C(C)CCC1C (stereo not given)
inactive: dose: 100.0 mg/kg/injection, schedule: Q04DX002 (ip), vehicle: saline 88 % of control | dose: 200.0 mg/kg/injection, schedule: Q04DX002 (ip), vehicle: saline 94 % of control | dose: 400.0 mg/kg/injection, schedule: Q04DX002 (ip), vehicle: saline 102 % of control

CN1CCN(C(c2ccccc2)c2ccccc2)CC1
inactive: dose: 3.12 mg/kg/injection, schedule: Q01DX009 (ip), vehicle: Klucel (hydroxypropylcellulose) (HPC) 97 % of control | dose: 6.25 mg/kg/injection, schedule: Q01DX009 (ip), vehicle: Klucel (hydroxypropylcellulose) (HPC) 102 % of control | dose: 12.5 mg/kg/injection, schedule: Q01DX009 (ip), vehicle: Klucel (hydroxypropylcellulose) (HPC) 97 % of control | [7] 108 % of control | dose: 25.0 mg/kg/injection, schedule: Q04DX003 (ip), vehicle: Klucel (hydroxypropylcellulose) (HPC) 97 % of control | [8] 103 % of control | [12] 92 % of control

O=C1CCOc2ccc(Cl)cc21
inactive: [1] 95 % of control | [3] 101 % of control | [5] 106 % of control

CCOC(=O)CC(C(=O)OCC)C(OCC)OCC (stereo not given)
inactive: [13] 104 % of control | [14] 106 % of control | [15] 111 % of control

CCCCN(CCCC)S(=O)(=O)CCC
inactive: dose: 50.0 mg/kg/injection, schedule: Q04DX002 (ip), vehicle: saline with Tween-80 101 % of control | dose: 100.0 mg/kg/injection, schedule: Q04DX002 (ip), vehicle: saline with Tween-80 97 % of control | dose: 200.0 mg/kg/injection, schedule: Q04DX002 (ip), vehicle: saline with Tween-80 97 % of control

O=[N+]([O-])c1ccc(NC(=S)Nc2cccc(C(F)(F)F)c2)cc1
inactive: [1] 90 % of control | [3] 91 % of control | [5] 100 % of control

Clc1ccc(Cl)c(SSc2cc(Cl)ccc2Cl)c1
inactive: [16] 101 % of control | [17] 98 % of control | [18] 89 % of control

O=CNNCc1c[nH]c(=O)[nH]c1=O
inactive: dose: 50.0 mg/kg/injection, schedule: Q01DX001 (ip), vehicle: saline 96 % of control | [16] 96 % of control | [17] 96 % of control | [18] 98 % of control

Nc1ncc(Br)c2ccccc12
inactive: [9] 96 % of control | [10] 103 % of control

Nc1ccc(S(=O)(=O)CI)cc1
inactive: dose: 100.0 mg/kg/injection, schedule: Q01DX001 (ip), vehicle: carboxymethylcellulose (CMC) 100 % of control | dose: 200.0 mg/kg/injection, schedule: Q01DX001 (ip), vehicle: carboxymethylcellulose (CMC) 92 % of control

C=Cc1cc(C)cc(OC)c1O
inactive: [8] 87 % of control | [1] 89 % of control | [3] 87 % of control

Cc1ccc(S(=O)(=O)Oc2ccc(N(CC(=O)O)S(=O)(=O)c3ccc(C)cc3)cc2)cc1
inactive: dose: 100.0 mg/kg/injection, schedule: Q01DX001 (ip), vehicle: water 98 % of control | dose: 100.0 mg/kg/injection, schedule: Q04DX003 (ip), vehicle: water 94 % of control | dose: 200.0 mg/kg/injection, schedule: Q01DX001 (ip), vehicle: water 96 % of control | dose: 200.0 mg/kg/injection, schedule: Q04DX003 (ip), vehicle: water 88 % of control | dose: 400.0 mg/kg/injection, schedule: Q01DX001 (ip), vehicle: water 97 % of control | dose: 400.0 mg/kg/injection, schedule: Q04DX003 (ip), vehicle: water 96 % of control

CCC(/C=C1\Sc2ccc(C)cc2N1CC)=C\c1sc2ccc(OC)cc2[n+]1CC
inactive: dose: 2.0 mg/kg/injection, schedule: Q01DX001 (ip), vehicle: other 106 % of control | dose: 4.0 mg/kg/injection, schedule: Q01DX001 (ip), vehicle: other 105 % of control

O=[N+]([O-])c1cc(Br)ccc1N1CCCC1
inactive: [13] 88 % of control | [14] 101 % of control | [15] 93 % of control

CC(C)(OC(=O)C(NC=O)C(C)(C)S)OC(=O)C(NC=O)C(C)(C)S (stereo not given)
inactive: [9] 98 % of control | [10] 95 % of control | [11] 100 % of control
